In patent US20120214760A1, “TREATMENT OF URINARY TRACT INFECTIONS WITH ANTIBACTERIAL AMINOGLYCOSIDE COMPOUNDS” (Achaogen, Inc., priority 2009, published 2012):
≈ marks a conversion by molar mass, not a printed value. Where two headings read alike, the source gives them in different places.

Experiments:
Assay type in all cases: cell-based
[1] = tested on: E. coli ATCC 25922 (AECO001); assay: MIC, CLSI broth microdilution; conditions: for MIC: Escherichia coli; for MIC AECO001: Table 3
Procedure, shortened: (§1)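 Test compounds were diluted two-fold at 2× strength in Mueller Hinton Broth, then combined 1:1 with saline-suspended bacteria from an overnight agar colony to reach 5×10^5 CFU/mL. Incubation followed at 35° C. for 20 hours in ambient air, per CLSI reference methods.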

[2] = tested on: P. aeruginosa ATCC 27853 (APAE001); assay: MIC, CLSI broth microdilution; conditions: Pseudomonas aeruginosa
Procedure, shortened: as §1

[3] = tested on: S. marcescens ASMA003, ANT(2″) + AAC(6′); assay: MIC, aminoglycoside resistant strain; conditions: Table 3
Protocol: (§2) Minimum inhibitory concentrations (MIC) were determined by reference Clinical and Laboratory Standards Institute (CLSI) broth microdilution methods per M7-A7 [2006]. Quality control ranges utilizing E. coli ATCC 25922, P. aeruginosa ATCC 27853 and S. aureus ATCC 29213, and interpretive criteria for comparator agents were as published in CLSI M100-S17 [2007]. Briefly, serial two-fold dilutions of the test compounds were prepared at 2× concentration in Mueller Hinton Broth. The compound dilutions were mixed in 96-well assay plates in a 1:1 ratio with bacterial inoculum. The inoculum was prepared by suspension of a colony from an agar plate that was prepared the previous day. Bacteria were suspended in sterile saline and added to each assay plate to obtain a final concentration of 5×10^5 CFU/mL. The plates were incubated at 35° C. for 20 hours in ambient air.
(§3) These MIC assays were conducted following the same protocol as set forth in Example 110. As shown, substituted sisomicin derivatives with groups other than methyl at the 6′-position have improved activity against strains expressing the AAC6′-modifying enzymes.

[4] = tested on: E. coli AECO040, AAC(6′)-I; assay: MIC, aminoglycoside resistant strain; conditions: Table 3
Protocol: as §2, §3

[5] = tested on: A. calcoaceticus AACA005, AAC(6′)-I; assay: MIC, aminoglycoside resistant strain; conditions: Table 3
Protocol: as §2, §3

[6] = ATCC25922, read-out: MIC AECO001, Table 1, AECO001 is ATCC25922
[7] = ATCC27853, read-out: MIC APAE001, Table 1, APAE001 is ATCC27853

Row | Structure (SMILES) | MIC [1, 6] [µg/mL] | MIC AECO001 ([1]; ATCC25922) [µg/mL] | MIC [2, 7] [µg/mL] | MIC ASMA003 [3] [µg/mL] | MIC AECO040 [4] [µg/mL] | MIC AACA005 [5] [µg/mL] | MIC ([1]; ATCC25922, Table 2, read-out: MIC E. coli) [µg/mL] | MIC ([1]; Table 1, AECO001 is ATCC25922, read-out: MIC AECO001) [µg/mL] | MIC ([2]; ATCC27853, Table 2, read-out: MIC P. aeruginosa) [µg/mL]
1 | CNCC1=CC[C@@H](N)[C@@H](O[C@H]2[C@H](O)[C@@H](O[C@H]3OC[C@](C)(O)[C@H](NC)[C@H]3O)[C@H](NC(=O)C3(O)CNC3)C[C@@H]2N)O1 [Example 61] | < 1 | 1 (≈ 1.78 µM) | 1 to 16 (≈ 1.78 to 28.5 µM) | 4 (≈ 7.13 µM) | 16 (≈ 28.5 µM) | 2 (≈ 3.57 µM) | – | – | –
2 | CN[C@@H]1[C@@H](O)[C@@H](O[C@@H]2[C@@H](O)[C@H](O[C@H]3OC(CNCCO)=CC[C@H]3N)[C@@H](N)C[C@H]2NC(=O)[C@@H](O)CN)OC[C@]1(C)O [Example 16, 6′-(2-Hydroxy-ethyl)-1-(3-amino-2(S)-hydroxy-propionyl)-sisomicin] | – | 1 (≈ 1.73 µM) | – | 2 (≈ 3.46 µM) | 1 (≈ 1.73 µM) | 2 (≈ 3.46 µM) | < 1 | < 1 | 1 to 16 (≈ 1.73 to 27.6 µM)
3 | CN[C@@H]1[C@@H](O)[C@@H](O[C@@H]2[C@@H](O)[C@H](O[C@H]3OC(CNCC4CCNCC4)=CC[C@H]3N)[C@@H](N)C[C@H]2NC(=O)[C@@H](O)CCN)OC[C@]1(C)O [Example 12, 6′-(Methyl-piperidin-4-yl)-1-(4-amino-2(S)-hydroxy-butyryl)-sisomicin] | 1 to 16 (≈ 1.55 to 24.8 µM) | 1 (≈ 1.55 µM) | 1 to 16 (≈ 1.55 to 24.8 µM) | 4 (≈ 6.19 µM) | 0.5 (≈ 0.774 µM) | 2 (≈ 3.1 µM) | – | – | –
4 | CN[C@@H]1C(O)[C@@H](O[C@@H]2[C@@H](O)[C@H](OC3OC(CN)=CC[C@H]3N)[C@@H](N)C[C@H]2NC(=O)[C@@H](O)CCN)OC[C@]1(C)O (stereo partly shown) [Mono-substituted Compound 6, reference compound] | – | 0.5 (≈ 0.911 µM) | – | 4 (≈ 7.29 µM) | 4 (≈ 7.29 µM) | 16 (≈ 29.2 µM) | – | – | –
5 | CN[C@@H]1C(O)[C@@H](O[C@@H]2[C@@H](O)[C@H](OC3OC(CN)=CC[C@H]3N)[C@@H](N)C[C@H]2NC(=O)C2(O)CNC2)OC[C@]1(C)O (stereo partly shown) [Mono-substituted Compound 7, reference compound] | – | 1 (≈ 1.83 µM) | – | 16 (≈ 29.3 µM) | 4 (≈ 7.32 µM) | 32 (≈ 58.5 µM) | – | – | –
6 | CN[C@@H]1[C@@H](O)[C@@H](O[C@@H]2[C@@H](O)[C@H](O[C@H]3OC(CNCC4CC4)=CC[C@H]3N)[C@@H](N)C[C@H]2NC(=O)[C@@H](O)CN)OC[C@]1(C)O [Example 13, 6′-(Methyl-cyclopropyl)-1-(3-amino-2(S)-hydroxy-propionyl)-sisomicin] | 1 to 16 (≈ 1.7 to 27.2 µM) | 1 (≈ 1.7 µM) | > 16 | 2 (≈ 3.4 µM) | 0.125 (≈ 0.212 µM) | 2 (≈ 3.4 µM) | – | – | –
7 | CNCC1=CC[C@@H](N)[C@@H](O[C@H]2C(O)[C@@H](O[C@H]3OC[C@](C)(O)[C@H](NC)[C@H]3O)[C@H](N)C[C@@H]2N)O1 (stereo partly shown) [Mono-substituted Compound 1, reference compound] | – | 1 (≈ 2.17 µM) | – | 1 (≈ 2.17 µM) | > 64 | 2 (≈ 4.33 µM) | – | – | –
8 | CN[C@@H]1C(O)[C@@H](O[C@@H]2[C@@H](O)[C@H](OC3OC(CN)=CC[C@H]3N)[C@@H](N)C[C@H]2NC(=O)[C@@H](O)CN)OC[C@]1(C)O (stereo partly shown) [Mono-substituted Compound 5, reference compound] | – | 0.5 (≈ 0.935 µM) | – | 2 (≈ 3.74 µM) | 8 (≈ 15 µM) | 32 (≈ 59.9 µM) | – | – | –
9 | CN[C@@H]1[C@@H](O)[C@@H](O[C@@H]2[C@@H](O)[C@H](O[C@H]3OC(CNCCCN)=CC[C@H]3N)[C@@H](N)C[C@H]2NC(=O)[C@@H](O)CCN)OC[C@]1(C)O [Example 48, 6′-(3-Amino-propyl)-1-(4-amino-2(S)-hydroxy-butyryl)-sisomicin] | < 1 | 1 (≈ 1.65 µM) | 1 to 16 (≈ 1.65 to 26.4 µM) | 2 (≈ 3.3 µM) | 0.5 (≈ 0.825 µM) | 2 (≈ 3.3 µM) | – | – | –
10 | CN[C@@H]1[C@@H](O)[C@@H](O[C@@H]2C(O)[C@H](O[C@H]3OC(CNCC4CCNCC4)=CC[C@H]3N)[C@@H](N)C[C@H]2N)OC[C@]1(C)O (stereo partly shown) [Mono-substituted Compound 3, reference compound] | – | 0.5 (≈ 0.918 µM) | – | 1 (≈ 1.84 µM) | 0.25 (≈ 0.459 µM) | 0.5 (≈ 0.918 µM) | – | – | –
11 | CN[C@@H]1[C@@H](O)[C@@H](O[C@@H]2C(O)[C@H](O[C@H]3OC(CNCC4CC4)=CC[C@H]3N)[C@@H](N)C[C@H]2N)OC[C@]1(C)O (stereo partly shown) [Mono-substituted Compound 2, reference compound] | – | 1 (≈ 1.99 µM) | – | 0.5 (≈ 0.997 µM) | 1 (≈ 1.99 µM) | 4 (≈ 7.97 µM) | – | – | –
